Data as given in ChEMBL document CHEMBL5154808, “Novel β-Hairpin Antimicrobial Peptides Containing the β-Turn Sequence of -RRRF- Having High Cell Selectivity and Low Incidence of Drug Resistance” (J Med Chem, 2022).
Values after ≈ are worked out from the molar mass of the structure shown. Active and inactive are the calls of the source. The rule behind the calls is not given here. Where a SMILES comes first, the peptide text is derived from it.

Columns and labels:
[1] = test system: Klebsiella pneumoniae; test: Antimicrobial activity against Klebsiella pneumoniae ATCC 700603 assessed as reduction of bacterial growth incubated for 18 hrs by CLSI protocol based broth microdilution method; assay type: functional
[2] = test system: Pseudomonas aeruginosa; test: Antimicrobial activity against Pseudomonas aeruginosa ATCC 27853 assessed as reduction of bacterial growth incubated for 18 hrs by CLSI protocol based broth microdilution method; assay type: functional
[3] = test system: Erythrocyte; test: Hemolytic activity in mouse red blood cells assessed as release of hemoglobin incubated for 1 hr by microplate reader method; assay type: toxicity, cell-based
[4] = test system: Staphylococcus epidermidis; test: Antimicrobial activity against Staphylococcus epidermidis ATCC 12228 assessed as reduction of bacterial growth incubated for 18 hrs by CLSI protocol based broth microdilution method; assay type: functional
[5] = test system: Escherichia coli; test: Antimicrobial activity against Escherichia coli ATCC 25922 assessed as reduction of bacterial growth incubated for 18 hrs by CLSI protocol based broth microdilution method; assay type: functional
[6] = test system: Bacillus subtilis; test: Antimicrobial activity against Bacillus subtilis ATCC 23857 assessed as reduction of bacterial growth incubated for 18 hrs by CLSI protocol based broth microdilution method; assay type: functional
[7] = test system: Staphylococcus aureus; test: Antimicrobial activity against Staphylococcus aureus ATCC 25923 assessed as reduction of bacterial growth incubated for 18 hrs by CLSI protocol based broth microdilution method; assay type: functional
[8] = test system: Enterococcus faecalis; test: Antimicrobial activity against Enterococcus faecalis ATCC 29212 assessed as reduction of bacterial growth incubated for 18 hrs by CLSI protocol based broth microdilution method; assay type: functional
[9] = Cytotoxicity against human HK-2 cells assessed as reduction in cell viability incubated for 1 hr by resazurin based microplate reader method; assay type: toxicity
[10] = test system: Staphylococcus aureus; test: Induction of drug resistance in Staphylococcus aureus ATCC 25923 assessed as fold increase in MIC after 5 passages by CLSI protocol based broth microdilution method; assay type: functional; settings: time 18.0 hrs
[11] = test system: Staphylococcus aureus; test: Antimicrobial activity against kanamycin-resistant Staphylococcus aureus ATCC 25923; assay type: functional
[12] = test system: Escherichia coli; test: Antimicrobial activity against kanamycin-resistant Escherichia coli ATCC 25922; assay type: functional
[13] = test system: Escherichia coli; test: Induction of drug resistance in Escherichia coli ATCC 25922 assessed as increase in MIC measured after 20 passages by CLSI protocol based broth microdilution method; assay type: functional; settings: time 18.0 hrs
[14] = test system: Staphylococcus aureus; test: Induction of drug resistance in Staphylococcus aureus ATCC 25923 assessed as increase in MIC after 10 passages by CLSI protocol based broth microdilution method; assay type: functional

Row | Compound | MIC [1] | MIC [2] | HC10 [3] | MIC [4] | MIC [5] | MIC [6] | MIC [7] | MIC [8] | CC50 at 1 h [9] | fold change (FC) [10] | MIC [11] | MIC [12] | Activity [13] | Activity [14]
1 | CC[C@H](C)[C@H](N)C(=O)N[C@@H](CCCNC(=N)N)C(=O)N[C@H](C(=O)N[C@@H](CCCNC(=N)N)C(=O)N[C@@H](CS)C(=O)N[C@@H](CCCNC(=N)N)C(=O)N[C@@H](CCCNC(=N)N)C(=O)N[C@@H](CCCNC(=N)N)C(=O)N[C@@H](Cc1ccccc1)C(=O)N[C@@H](CS)C(=O)N[C@@H](CCCNC(=N)N)C(=O)N[C@H](C(=O)N[C@@H](CCCNC(=N)N)C(=O)N[C@H](C(N)=O)[C@@H](C)CC)[C@@H](C)CC)[C@@H](C)CC (H-IRIRCRRRFCRIRI-NH2) | 8 µM (≈ 15.3 µg/mL) | 4 µM (≈ 7.67 µg/mL) | > 256 µM | 4 µM (≈ 7.67 µg/mL) | 8 µM (≈ 15.3 µg/mL) | 4 µM (≈ 7.67 µg/mL) | 8 µM (≈ 15.3 µg/mL) | 16 µM (≈ 30.7 µg/mL) | 37.1 µM | – | – | – | – | –
2 | CC(C)C[C@H](NC(=O)[C@H](CCCNC(=N)N)NC(=O)CNC(=O)CNC(=O)[C@@H](N)CCCNC(=N)N)C(=O)N[C@@H](CS)C(=O)N[C@@H](Cc1ccc(O)cc1)C(=O)N[C@@H](CS)C(=O)N[C@@H](CCCNC(=N)N)C(=O)N[C@@H](CCCNC(=N)N)C(=O)N[C@@H](CCCNC(=N)N)C(=O)N[C@@H](Cc1ccccc1)C(=O)N[C@@H](CS)C(=O)N[C@H](C(=O)N[C@@H](CS)C(=O)N[C@H](C(=O)NCC(=O)N[C@@H](CCCNC(=N)N)C(N)=O)C(C)C)C(C)C (H-RGGRLCYCRRRFCVCVGR-NH2) | 8 µM (≈ 17.3 µg/mL) | 4 µM (≈ 8.64 µg/mL) | 20 µM | 4 µM (≈ 8.64 µg/mL) | 8 µM (≈ 17.3 µg/mL) | 2 µM (≈ 4.32 µg/mL) | 8 µM (≈ 17.3 µg/mL) | 8 µM (≈ 17.3 µg/mL) | 14.2 µM | – | – | – | – | –
3 | NC[C@H]1O[C@H](O[C@H]2[C@H](O)[C@@H](O[C@H]3O[C@H](CO)[C@@H](O)[C@H](N)[C@H]3O)[C@H](N)C[C@@H]2N)[C@H](O)[C@@H](O)[C@@H]1O [KANAMYCIN] | 64 µM (≈ 31 µg/mL) | > 128 µM | – | > 128 µM | 4 µM (≈ 1.94 µg/mL) | < 1 µM | < 1 µM | 16 µM (≈ 7.75 µg/mL) | – | 64 | 1020 µM (≈ 496 µg/mL) | 1020 µM (≈ 496 µg/mL) | Active | –
4 | CC[C@H](C)[C@H](NC(=O)CN)C(=O)NCC(=O)N[C@@H](C)C(=O)N[C@H](C(=O)N[C@@H](CC(C)C)C(=O)N[C@@H](CCCCN)C(=O)N[C@H](C(=O)N[C@@H](CC(C)C)C(=O)N[C@H](C(=O)N[C@H](C(=O)NCC(=O)N[C@@H](CC(C)C)C(=O)N1CCC[C@H]1C(=O)N[C@@H](C)C(=O)N[C@@H](CC(C)C)C(=O)N[C@H](C(=O)N[C@@H](CO)C(=O)N[C@@H](Cc1c[nH]c2ccccc12)C(=O)N[C@H](C(=O)N[C@@H](CCCCN)C(=O)N[C@@H](CCCNC(=N)N)C(=O)N[C@@H](CCCCN)C(=O)N[C@@H](CCCNC(=N)N)C(=O)N[C@@H](CCC(N)=O)C(=O)N[C@@H](CCC(N)=O)C(N)=O)[C@@H](C)CC)[C@@H](C)CC)[C@@H](C)O)[C@@H](C)O)C(C)C)C(C)C [MELITTIN] | 16 µM (≈ 45.5 µg/mL) | – | – | – | – | – | – | 2 µM (≈ 5.69 µg/mL) | – | – | – | – | – | –
5 | C[C@@H](O)[C@H]1C(=O)N2C(C(=O)O)=C(S[C@@H]3CN[C@H](C(=O)N(C)C)C3)[C@H](C)[C@H]12 [MEROPENEM] | < 1 µM | 2 µM (≈ 0.767 µg/mL) | – | < 1 µM | < 1 µM | < 1 µM | < 1 µM | 16 µM (≈ 6.14 µg/mL) | – | – | – | – | Active | Active
6 | CO[C@H]1/C=C/O[C@@]2(C)Oc3c(C)c(O)c4c(O)c(c(/C=N/N5CCN(C)CC5)c(O)c4c3C2=O)NC(=O)/C(C)=C\C=C\[C@H](C)[C@H](O)[C@@H](C)[C@@H](O)[C@@H](C)[C@H](OC(C)=O)[C@@H]1C [RIFAMPIN] | 32 µM (≈ 26.3 µg/mL) | 32 µM (≈ 26.3 µg/mL) | – | < 1 µM | 4 µM (≈ 3.29 µg/mL) | < 1 µM | < 1 µM | < 1 µM | – | 64 | – | – | Active | –
7 | H-ARARRRRFRARA-NH2 | > 128 µM | > 128 µM | > 256 µM | 128 µM | > 128 µM | 64 µM | 128 µM | > 128 µM | > 128 µM | – | – | – | – | –
8 | H-FRFRFRRRRFRFRFRF-NH2 | 8 µM | 8 µM | > 256 µM | 2 µM | 8 µM | 4 µM | 8 µM | 8 µM | 10.3 µM | – | – | – | – | –
9 | H-FRFRRRRFRFRF-NH2 | 8 µM | 8 µM | 237 µM | 4 µM | 8 µM | 2 µM | 4 µM | 16 µM | 42 µM | – | – | – | – | –
10 | H-IKIKRRRFKIKI-NH2 | 64 µM | 16 µM | > 256 µM | 8 µM | 64 µM | 4 µM | 32 µM | 64 µM | > 128 µM | – | – | – | – | –
11 | H-IRIRIRRRRFRIRIRI-NH2 | 8 µM | 4 µM | 56 µM | 2 µM | 8 µM | 2 µM | 8 µM | 4 µM | 12.3 µM | – | – | – | – | –
12 | H-IRIRRRRFRIRI-NH2 | 16 µM | 4 µM | > 256 µM | 4 µM | 16 µM | 4 µM | 4 µM | 16 µM | 128 µM | – | – | – | – | –
13 | H-LKLKRRRFKLKL-NH2 | 128 µM | 64 µM | > 256 µM | 8 µM | 32 µM | 4 µM | 32 µM | 128 µM | > 128 µM | – | – | – | – | –
14 | H-RIRIRRRFIRIR-NH2 | 64 µM | 16 µM | > 256 µM | 4 µM | 8 µM | 4 µM | 8 µM | 32 µM | > 128 µM | – | – | – | – | –
15 | H-VRVRRRRFRVRV-NH2 | 64 µM | 64 µM | > 256 µM | 8 µM | 32 µM | 4 µM | 16 µM | > 128 µM | > 128 µM | – | – | – | – | –
16 | H-WKWKRRRFKWKW-NH2 | 8 µM | 4 µM | > 256 µM | 4 µM | 4 µM | 2 µM | 4 µM | 16 µM | 120 µM | – | – | – | – | –
17 | H-WKWKWKRRRFKWKWKW-NH2 | 8 µM | 4 µM | > 256 µM | 4 µM | 8 µM | 4 µM | 8 µM | 8 µM | 10.4 µM | – | – | – | – | –
18 | H-WRWRRRRFRWRW-NH2 | 8 µM | 8 µM | > 256 µM | 4 µM | 8 µM | 2 µM | 8 µM | 8 µM | 8.7 µM | – | – | – | – | –
